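Where inhibition never reached the appropriate level, the endpoint shown equals the highest concentration tested. Otherwise, values were interpolated linearly from a five-concentration, 48-hour dose response in 96-well plates. GI50 = concentration required for 50% inhibition of growth.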 Active and inactive are the calls of the source. Cut-off read from the data, not from the text of the source: active = GI50 up to about 1.1 µM and inactive = higher.
Tests used:
Assay in all cases: inhibition of tumour cell growth, NCI panel, 48 h
[1] = test system: HOP-92
[2] = test system: M19-MEL
[3] = test system: NCI-H522
[4] = test system: SF-539
[5] = test system: SNB-78
[6] = test system: M14
[7] = test system: SR
[8] = test system: KM-20L2
[9] = test system: Malme-3M
[10] = test system: SK-OV-3
[11] = test system: PC-3
[12] = test system: CCRF-CEM
[13] = test system: MCF7
[14] = test system: Hs-578T
[15] = test system: MDA-MB-435
[16] = test system: T47D
[17] = test system: RPMI-8226
[18] = test system: A498
[19] = test system: OVCAR-3

SMILES | GI50 [1] | GI50 [2] | GI50 [3] | GI50 [4] | GI50 [5] | GI50 [6] | GI50 [7] | GI50 [8] | GI50 [9] | GI50 [10] | GI50 [11] | GI50 [12] | GI50 [13] | GI50 [14] | GI50 [15] | GI50 [16] | GI50 [17] | GI50 [18] | GI50 [19]
CC(C)=CCC/C(C)=C/C=C/C(C)=C/C1C[C@@]2(C(O)O1)[C@H](CCCO)/C(=C(/C)C=O)CC[C@]2(C)O (stereo partly drawn) | < 0.01 µM (active) | 16.2 µM (inactive) | 19.5 µM (inactive) | 12.2 µM (inactive) | 20.5 µM (inactive) | 13.5 µM (inactive) | 14.6 µM (inactive) | 15.3 µM (inactive) | 4.59 µM (inactive) | > 10 µM (inactive) | – | – | – | – | – | – | – | – | –
CC1CC[P+](c2ccccc2)(c2ccccc2)c2c1ccc1ccccc21 (stereo not drawn) | 1.45 µM (inactive) | 1.69 µM (inactive) | 0.946 µM (active) | 5.26 µM (inactive) | 2.67 µM (inactive) | 3.53 µM (inactive) | – | 2.5 µM (inactive) | 5.96 µM (inactive) | – | 0.948 µM (active) | 3.78 µM (inactive) | 2.26 µM (inactive) | 1.46 µM (inactive) | 1.52 µM (inactive) | 0.883 µM (active) | – | – | –
O=C1CCC23CC(C=CC=C12)n1c(=O)n(-c2ccccc2)c(=O)n13 (stereo not drawn) | > 100 µM (inactive) | > 100 µM (inactive) | > 100 µM (inactive) | > 100 µM (inactive) | > 59.2 µM (inactive) | – | – | – | > 100 µM (inactive) | > 100 µM (inactive) | – | 42.4 µM (inactive) | 10.9 µM (inactive) | – | – | – | > 100 µM (inactive) | > 100 µM (inactive) | > 100 µM (inactive)
O=c1cccccc1NCCCCCCCCNc1cccccc1=O | 22.9 µM (inactive) | > 100 µM (inactive) | 75.3 µM (inactive) | > 100 µM (inactive) | > 100 µM (inactive) | > 100 µM (inactive) | 17.8 µM (inactive) | > 100 µM (inactive) | > 100 µM (inactive) | > 100 µM (inactive) | – | > 100 µM (inactive) | – | – | – | – | 6.56 µM (inactive) | – | 7.59 µM (inactive)
N=S(=O)(c1ccccc1)c1ccccc1[N+](=O)[O-] (stereo not drawn) | – | > 100 µM (inactive) | > 100 µM (inactive) | > 100 µM (inactive) | > 100 µM (inactive) | > 100 µM (inactive) | > 100 µM (inactive) | > 100 µM (inactive) | > 100 µM (inactive) | > 100 µM (inactive) | – | > 100 µM (inactive) | – | – | – | – | > 100 µM (inactive) | > 100 µM (inactive) | > 100 µM (inactive)
COc1ccccc1/C=C(\C#N)c1ccccc1 | 45 µM (inactive) | 32.6 µM (inactive) | 16.6 µM (inactive) | 34.8 µM (inactive) | 31.2 µM (inactive) | 32.8 µM (inactive) | 15.6 µM (inactive) | 23.6 µM (inactive) | – | 26.7 µM (inactive) | – | 17.7 µM (inactive) | – | – | – | – | 20.8 µM (inactive) | 24.2 µM (inactive) | 19.5 µM (inactive)
CCCCNC(=O)N/C=C1\C(=O)Oc2ccccc2C1=O | 24.9 µM (inactive) | 54.5 µM (inactive) | – | 39.4 µM (inactive) | 19.9 µM (inactive) | 41.7 µM (inactive) | 57.5 µM (inactive) | > 100 µM (inactive) | – | – | – | – | – | – | – | – | 55.7 µM (inactive) | – | –
c1cncc(O[Si](Oc2cccnc2)(Oc2cccnc2)Oc2cccnc2)c1 | – | > 100 µM (inactive) | – | > 100 µM (inactive) | > 100 µM (inactive) | > 100 µM (inactive) | > 100 µM (inactive) | – | > 100 µM (inactive) | > 100 µM (inactive) | – | – | – | – | – | – | – | – | > 100 µM (inactive)
COc1ccc(-c2nc3ccc([N+](=O)[O-])cc3c(=O)[nH]2)cc1 | 22 µM (inactive) | > 100 µM (inactive) | 26.9 µM (inactive) | 14.5 µM (inactive) | 19.9 µM (inactive) | – | – | > 100 µM (inactive) | – | 13.6 µM (inactive) | – | > 100 µM (inactive) | 46.5 µM (inactive) | – | – | – | > 61.4 µM (inactive) | 29.3 µM (inactive) | 28.4 µM (inactive)
C#Cc1cccc(N2C(=O)c3c(c(-c4ccccc4)c(-c4ccc(Cc5ccc(-c6c(-c7ccccc7)c7c(c(-c8ccccc8)c6-c6ccccc6)C(=O)N(c6cccc(C#C)c6)C7=O)cc5)cc4)c(-c4ccccc4)c3-c3ccccc3)C2=O)c1 | 2.79 µM (inactive) | 23.1 µM (inactive) | > 100 µM (inactive) | 21.2 µM (inactive) | 47.4 µM (inactive) | 16.9 µM (inactive) | – | 16.2 µM (inactive) | 45 µM (inactive) | – | – | 26.6 µM (inactive) | – | – | – | – | 24.9 µM (inactive) | – | 44.3 µM (inactive)
O=C(CC1(O)C(=O)Nc2c(Cl)cc(Cl)cc21)c1ccc([N+](=O)[O-])cc1 (stereo not drawn) | 24.3 µM (inactive) | 10.3 µM (inactive) | 19.4 µM (inactive) | > 46.7 µM (inactive) | > 47.8 µM (inactive) | > 41.6 µM (inactive) | > 51.3 µM (inactive) | > 78 µM (inactive) | > 43.9 µM (inactive) | > 100 µM (inactive) | – | 26.7 µM (inactive) | – | – | – | – | 26.9 µM (inactive) | 29.9 µM (inactive) | 33.7 µM (inactive)
CCC(/C=C/c1ccccc1)=N\N=C(\C=C\c1ccccc1)CC | – | > 100 µM (inactive) | > 100 µM (inactive) | – | > 100 µM (inactive) | > 100 µM (inactive) | > 100 µM (inactive) | > 100 µM (inactive) | > 100 µM (inactive) | > 100 µM (inactive) | – | > 100 µM (inactive) | – | – | – | – | > 100 µM (inactive) | > 100 µM (inactive) | > 100 µM (inactive)
N#C[C@H](OC1OC(COC2OC(CO)C(O)C(O)C2O)C(O)C(O)C1O)c1ccccc1 (stereo partly drawn) | 2.5 µM (inactive) | > 250 µM (inactive) | > 200 µM (inactive) | > 214 µM (inactive) | 228 µM (inactive) | – | – | > 250 µM (inactive) | > 250 µM (inactive) | > 250 µM (inactive) | – | > 250 µM (inactive) | > 250 µM (inactive) | – | – | – | > 250 µM (inactive) | > 11.6 µM (inactive) | > 250 µM (inactive)
